Reference: patent US7118895B2, “Process for producing aglycon by using diglycosidase and flavor-improved food containing the aglycon and converting agent to be used in the process” (Amano Enzyme Inc., priority 2000, dated 2006)

Test system: Crude diglycosidase
Experiment: Examination of substrate concentration in the conversion into isoflavone aglycons by diglycosidase using soybean materials;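 as to Decomposition efficiency: ratio of each glycoside/aglycon within its isoflavone family: percent of the isoflavone family total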
Type: biochemical, Penicillium multicolor IAM7153
In short: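 Soybean materials (roasted soy flour, soymilk, defatted soybean, concentrated soy protein) at 2–30% (w/v) in 20 mM acetate pH 4.0 were reacted with crude diglycosidase at 55° C with shaking; enzyme solution added was 1.88 AU/mL. Samples taken at 0, 1, 3 and 6 h were ethanol-extracted and analyzed by HPLC.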

Decomposition efficiency: ratio of each glycoside/aglycon within its isoflavone family (roasted soy flour, substrate concentration 10%, heat treatment of enzyme no, reaction time 3 h): not detected | Decomposition efficiency: ratio of each glycoside/aglycon within its isoflavone family (roasted soy flour, substrate concentration 10%, heat treatment of enzyme no, reaction time 6 h): not detected | Decomposition efficiency: ratio of each glycoside/aglycon within its isoflavone family (roasted soy flour, substrate concentration 10%, heat treatment of enzyme yes, reaction time 6 h): not detected | Decomposition efficiency: ratio of each glycoside/aglycon within its isoflavone family (roasted soy flour, substrate concentration 20%, heat treatment of enzyme no, reaction time 0 h): not detected | Decomposition efficiency: ratio of each glycoside/aglycon within its isoflavone family (roasted soy flour, substrate concentration 20%, heat treatment of enzyme no, reaction time 1 h): not detected | Decomposition efficiency: ratio of each glycoside/aglycon within its isoflavone family (roasted soy flour, substrate concentration 20%, heat treatment of enzyme no, reaction time 3 h): not detected | Decomposition efficiency: ratio of each glycoside/aglycon within its isoflavone family (roasted soy flour, substrate concentration 20%, heat treatment of enzyme no, reaction time 6 h): not detected | Decomposition efficiency: ratio of each glycoside/aglycon within its isoflavone family (roasted soy flour, substrate concentration 20%, heat treatment of enzyme yes, reaction time 6 h): not detected | Decomposition efficiency: ratio of each glycoside/aglycon within its isoflavone family (roasted soy flour, substrate concentration 30%, heat treatment of enzyme no, reaction time 0 h): not detected | Decomposition efficiency: ratio of each glycoside/aglycon within its isoflavone family (roasted soy flour, substrate concentration 30%, heat treatment of enzyme no, reaction time 1 h): not detected | Decomposition efficiency: ratio of each glycoside/aglycon within its isoflavone family (roasted soy flour, substrate concentration 30%, heat treatment of enzyme no, reaction time 3 h): not detected | Decomposition efficiency: ratio of each glycoside/aglycon within its isoflavone family (roasted soy flour, substrate concentration 30%, heat treatment of enzyme no, reaction time 6 h): not detected | Decomposition efficiency: ratio of each glycoside/aglycon within its isoflavone family (roasted soy flour, substrate concentration 30%, heat treatment of enzyme yes, reaction time 6 h): not detected | Decomposition efficiency: ratio of each glycoside/aglycon within its isoflavone family (soymilk, substrate concentration 2%, heat treatment of enzyme no, reaction time 0 h): 35.0% | Decomposition efficiency: ratio of each glycoside/aglycon within its isoflavone family (soymilk, substrate concentration 2%, heat treatment of enzyme no, reaction time 1 h): 15.3% | Decomposition efficiency: ratio of each glycoside/aglycon within its isoflavone family (soymilk, substrate concentration 2%, heat treatment of enzyme no, reaction time 3 h): 3.5% | Decomposition efficiency: ratio of each glycoside/aglycon within its isoflavone family (soymilk, substrate concentration 2%, heat treatment of enzyme no, reaction time 6 h): 0.0% | Decomposition efficiency: ratio of each glycoside/aglycon within its isoflavone family (soymilk, substrate concentration 2%, heat treatment of enzyme yes, reaction time 6 h): 49.5% | Decomposition efficiency: ratio of each glycoside/aglycon within its isoflavone family (soymilk, substrate concentration 5%, heat treatment of enzyme no, reaction time 0 h): 58.2% | Decomposition efficiency: ratio of each glycoside/aglycon within its isoflavone family (soymilk, substrate concentration 5%, heat treatment of enzyme no, reaction time 1 h): 24.9% | Decomposition efficiency: ratio of each glycoside/aglycon within its isoflavone family (soymilk, substrate concentration 5%, heat treatment of enzyme no, reaction time 3 h): 6.9% | Decomposition efficiency: ratio of each glycoside/aglycon within its isoflavone family (soymilk, substrate concentration 5%, heat treatment of enzyme no, reaction time 6 h): 2.1% | Decomposition efficiency: ratio of each glycoside/aglycon within its isoflavone family (soymilk, substrate concentration 5%, heat treatment of enzyme yes, reaction time 6 h): 52.5% | Decomposition efficiency: ratio of each glycoside/aglycon within its isoflavone family (soymilk, substrate concentration 10%, heat treatment of enzyme no, reaction time 0 h): 56.5% | Decomposition efficiency: ratio of each glycoside/aglycon within its isoflavone family (soymilk, substrate concentration 10%, heat treatment of enzyme no, reaction time 1 h): 31.5% | Decomposition efficiency: ratio of each glycoside/aglycon within its isoflavone family (soymilk, substrate concentration 10%, heat treatment of enzyme no, reaction time 3 h): 11.9% | Decomposition efficiency: ratio of each glycoside/aglycon within its isoflavone family (soymilk, substrate concentration 10%, heat treatment of enzyme no, reaction time 6 h): 4.8% | Decomposition efficiency: ratio of each glycoside/aglycon within its isoflavone family (soymilk, substrate concentration 10%, heat treatment of enzyme yes, reaction time 6 h): 51.2% | Decomposition efficiency: ratio of each glycoside/aglycon within its isoflavone family (soymilk, substrate concentration 20%, heat treatment of enzyme no, reaction time 0 h): 56.3% | Decomposition efficiency: ratio of each glycoside/aglycon within its isoflavone family (soymilk, substrate concentration 20%, heat treatment of enzyme no, reaction time 1 h): 37.6% | Decomposition efficiency: ratio of each glycoside/aglycon within its isoflavone family (soymilk, substrate concentration 20%, heat treatment of enzyme no, reaction time 3 h): 15.7% | Decomposition efficiency: ratio of each glycoside/aglycon within its isoflavone family (soymilk, substrate concentration 20%, heat treatment of enzyme no, reaction time 6 h): 10.7% | Decomposition efficiency: ratio of each glycoside/aglycon within its isoflavone family (soymilk, substrate concentration 20%, heat treatment of enzyme yes, reaction time 6 h): 51.0% | Decomposition efficiency: ratio of each glycoside/aglycon within its isoflavone family (soymilk, substrate concentration 30%, heat treatment of enzyme no, reaction time 0 h): 55.9% | Decomposition efficiency: ratio of each glycoside/aglycon within its isoflavone family (soymilk, substrate concentration 30%, heat treatment of enzyme no, reaction time 1 h): 42.5% | Decomposition efficiency: ratio of each glycoside/aglycon within its isoflavone family (soymilk, substrate concentration 30%, heat treatment of enzyme no, reaction time 3 h): 25.4% | Decomposition efficiency: ratio of each glycoside/aglycon within its isoflavone family (soymilk, substrate concentration 30%, heat treatment of enzyme no, reaction time 6 h): 17.1% | Decomposition efficiency: ratio of each glycoside/aglycon within its isoflavone family (soymilk, substrate concentration 30%, heat treatment of enzyme yes, reaction time 6 h): 50.0% | Decomposition efficiency of genistin family in defatted soybean (substrate concentration 2%, heat treatment of enzyme no, reaction time 0 h): 45.4 | Decomposition efficiency of genistin family in defatted soybean (substrate concentration 2%, heat treatment of enzyme no, reaction time 1 h): 31.4 | Decomposition efficiency of genistin family in defatted soybean (substrate concentration 2%, heat treatment of enzyme no, reaction time 3 h): 17.0 | Decomposition efficiency of genistin family in defatted soybean (substrate concentration 2%, heat treatment of enzyme no, reaction time 6 h): 11.4 | Decomposition efficiency of genistin family in defatted soybean (substrate concentration 2%, heat treatment of enzyme yes, reaction time 6 h): 41.8 | Decomposition efficiency of genistin family in defatted soybean (substrate concentration 5%, heat treatment of enzyme no, reaction time 0 h): 43.9 | Decomposition efficiency of genistin family in defatted soybean (substrate concentration 5%, heat treatment of enzyme no, reaction time 1 h): 38.0 | Decomposition efficiency of genistin family in defatted soybean (substrate concentration 5%, heat treatment of enzyme no, reaction time 3 h): 29.6 | Decomposition efficiency of genistin family in defatted soybean (substrate concentration 5%, heat treatment of enzyme no, reaction time 6 h): 19.0 | Decomposition efficiency of genistin family in defatted soybean (substrate concentration 5%, heat treatment of enzyme yes, reaction time 6 h): 41.1 | Decomposition efficiency of genistin family in defatted soybean (substrate concentration 10%, heat treatment of enzyme no, reaction time 0 h): 41.6 | Decomposition efficiency of genistin family in defatted soybean (substrate concentration 10%, heat treatment of enzyme no, reaction time 1 h): 41.5 | Decomposition efficiency of genistin family in defatted soybean (substrate concentration 10%, heat treatment of enzyme no, reaction time 3 h): 35.1 | Decomposition efficiency of genistin family in defatted soybean (substrate concentration 10%, heat treatment of enzyme no, reaction time 6 h): 29.1 | Decomposition efficiency of genistin family in defatted soybean (substrate concentration 10%, heat treatment of enzyme yes, reaction time 6 h): 39.4
SMILES: O=C(O)CC(=O)OC[C@H]1O[C@@H](Oc2cc(O)c3c(=O)c(-c4ccc(O)cc4)coc3c2)[C@H](O)[C@@H](O)[C@@H]1O [malonylgenistin, 6″-O-malonylgenistin]
